Measured values: patent publication US20210138006A1, “Systems, Methods, and Compositions for Treating or Preventing Bacterial Infection and for Reducing or Preventing Bacterial Overpopulation” (BRIGHAM YOUNG UNIVERSITY, priority 2018, published 2021)

Tested on: honeybees (Apis mellifera)
Type: in vivo
Settings: after fall inspection
Text: Treatment Study: This study provides disclosure relating to the potential effectiveness of using phages, such as PL phages, when treating healthy beehives that are not at risk for AFB.
This combined not-at-risk preventative and safety treatment study using PL phages occurred when 96 beehives were observed and assigned to one of three groups to either be control hives, hives treated preventative PL phages, or hives treated with preventative Tylan antibiotic.
Study Design: Test animals—A total of 96 colonies (hives) of honeybees (Apis mellifera) were previously established in two near-by apiaries. Each of the colonies had to meet the following four criteria: a viable laying queen, contain approximately 40,000 or more adult worker bees, have uncapped brood, and have no visible signs of American Foulbrood. All 96 hives met the criteria and were included in the study.
Route of administration: Oral.
Treatment: PL phage cocktail diluted in sugar water.
Objective and design: The objective was to determine the comparative health of beehives left without a treatment to hives prophylactically treated with PL phages or Tylan antibiotic for the prevention of AFB in a longitudinal study.
All 96 beehives were inspected in spring and fall using a 3-brood rack approach, wherein observation of three full brood racks constituted a complete inspection to look for AFB. Hives that looked unusual were inspected beyond the 3-brood racks. For each hive observation upon signs of AFB, the colonies were to be rated on a 0-3 scale based on a modification of the method proposed by Hitchcock et al. (1970). Frames were rated as follows:
For each hive inspected, other observations were also noted, such as signs of chalkbrood, European Foulbrood (EFB), apparent mite infestation, queen health (based on laying patterns, etc.), other obvious disorders, and any colony loss.
Results: AFB was not detected in any hive in any group throughout the study. […] For this study, a hive was counted as “diseased” if it had chalkbrood, had European Foulbrood, or struggled to thrive. […]

## CC[C@H]1OC(=O)C[C@@H](O)[C@H](C)[C@@H](O[C@@H]2O[C@H](C)[C@@H](O[C@H]3C[C@@](C)(O)[C@@H](O)[C@H](C)O3)[C@H](N(C)C)[C@H]2O)[C@@H](CC=O)C[C@@H](C)C(=O)/C=C/C(C)=C/[C@@H]1CO[C@@H]1O[C@H](C)[C@@H](O)[C@@H](OC)[C@H]1OC [Tylan]
32 hives per group, control 90.6%
  % Healthy Hives (positive health survival rate): 62.5%
Of 32 hives per group, control 3
  Diseased or Dead Hives: 12
Of 32 hives per group, control 29
  hives remained healthy: 20
